IC50, EC50 and AC50 data for two compounds are collected here from ChEMBL document CHEMBL1201862, “PubChem BioAssay data set” (2004).

The target of experiment [1] is T1, Tyrosine-protein phosphatase non-receptor type 22 (Homo sapiens, UniProt Q9Y2R2).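 Further: confirmatory dose-response retesting of primary uHTS hits against LYP; potency is for inhibition of phosphatase activity.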
T1 sequence (Q9Y2R2 whole entry): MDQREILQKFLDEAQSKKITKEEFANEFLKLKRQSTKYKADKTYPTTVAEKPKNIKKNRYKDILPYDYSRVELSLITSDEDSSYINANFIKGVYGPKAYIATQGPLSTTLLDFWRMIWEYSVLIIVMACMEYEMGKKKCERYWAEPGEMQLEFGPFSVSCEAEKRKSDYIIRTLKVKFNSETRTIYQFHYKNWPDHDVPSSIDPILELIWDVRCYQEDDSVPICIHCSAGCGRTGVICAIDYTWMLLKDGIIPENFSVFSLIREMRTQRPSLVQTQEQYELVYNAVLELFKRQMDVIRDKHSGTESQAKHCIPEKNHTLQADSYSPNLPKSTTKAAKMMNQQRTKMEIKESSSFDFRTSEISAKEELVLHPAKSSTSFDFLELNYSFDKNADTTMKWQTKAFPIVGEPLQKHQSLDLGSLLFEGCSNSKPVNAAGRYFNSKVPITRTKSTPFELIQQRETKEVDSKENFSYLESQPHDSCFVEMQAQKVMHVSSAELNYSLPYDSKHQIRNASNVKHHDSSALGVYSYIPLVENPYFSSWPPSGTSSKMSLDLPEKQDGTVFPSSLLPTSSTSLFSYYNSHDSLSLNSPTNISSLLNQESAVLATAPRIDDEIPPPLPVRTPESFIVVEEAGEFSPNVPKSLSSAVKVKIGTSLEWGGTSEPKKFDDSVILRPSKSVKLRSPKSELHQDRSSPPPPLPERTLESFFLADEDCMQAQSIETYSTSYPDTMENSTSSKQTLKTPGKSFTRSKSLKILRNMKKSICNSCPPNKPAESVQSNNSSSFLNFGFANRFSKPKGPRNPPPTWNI
It is filed as functional.

Experiment [2] addresses Voltage-gated N-type calcium channel alpha-1B subunit/Amyloid beta A4 precursor protein-binding family A member 1 (Homo sapiens, UniProt Q00975+Q02410). It is filed as protein assay.
A further experiment concerns H4. The experiment can be described thus: Luminescence Cell-Based Dose Response HTS to Identify Activators of 5'UTR Stem-Loop Driven Prion Protein mRNA Translation in H4 Neuroglioblastoma Cells. [Related pubchem assays: 1829 (Project Summary), 1814 (Primary HTS)]. The format is functional. Particulars: Homo sapiens.
The target in experiment [3] is T2, Replicative DNA helicase DnaB (Mycobacterium tuberculosis, UniProt P9WMR3).
T2 sequence (P9WMR3 whole entry): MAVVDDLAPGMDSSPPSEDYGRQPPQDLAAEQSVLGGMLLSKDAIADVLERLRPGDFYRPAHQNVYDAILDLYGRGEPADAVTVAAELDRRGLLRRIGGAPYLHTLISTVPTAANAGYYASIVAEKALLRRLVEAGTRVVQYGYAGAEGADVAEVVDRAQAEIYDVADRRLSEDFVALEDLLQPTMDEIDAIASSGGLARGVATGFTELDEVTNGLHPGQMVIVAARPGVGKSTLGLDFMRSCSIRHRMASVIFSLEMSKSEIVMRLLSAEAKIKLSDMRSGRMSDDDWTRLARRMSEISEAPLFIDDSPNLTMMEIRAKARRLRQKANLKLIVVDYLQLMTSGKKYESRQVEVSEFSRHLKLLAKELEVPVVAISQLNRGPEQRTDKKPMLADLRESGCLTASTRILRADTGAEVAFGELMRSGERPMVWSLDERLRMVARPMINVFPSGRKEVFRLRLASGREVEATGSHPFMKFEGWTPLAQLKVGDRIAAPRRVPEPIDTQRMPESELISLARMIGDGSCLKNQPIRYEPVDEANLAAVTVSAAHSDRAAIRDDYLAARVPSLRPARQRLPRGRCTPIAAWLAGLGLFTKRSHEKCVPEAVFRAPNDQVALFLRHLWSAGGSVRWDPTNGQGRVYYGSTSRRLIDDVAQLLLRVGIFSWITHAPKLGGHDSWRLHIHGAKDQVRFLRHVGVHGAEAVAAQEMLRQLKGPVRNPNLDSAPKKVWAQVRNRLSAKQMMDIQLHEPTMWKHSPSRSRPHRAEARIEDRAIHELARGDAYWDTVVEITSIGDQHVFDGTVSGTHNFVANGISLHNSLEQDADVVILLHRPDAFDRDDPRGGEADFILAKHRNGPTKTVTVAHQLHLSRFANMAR
Description: DnaB intein splicing inhibitors, dose response, biochemical, cell-free fluorescence (AID 449749). The format is functional.

In experiment [4] the target is T3, Sentrin-specific protease 7 (Homo sapiens, UniProt Q9BQF6).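 Further: Luminescence-based dose-response confirmation of ultra-high-throughput screening hits, measuring inhibition of SENP7.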
T3 sequence (Q9BQF6 whole entry): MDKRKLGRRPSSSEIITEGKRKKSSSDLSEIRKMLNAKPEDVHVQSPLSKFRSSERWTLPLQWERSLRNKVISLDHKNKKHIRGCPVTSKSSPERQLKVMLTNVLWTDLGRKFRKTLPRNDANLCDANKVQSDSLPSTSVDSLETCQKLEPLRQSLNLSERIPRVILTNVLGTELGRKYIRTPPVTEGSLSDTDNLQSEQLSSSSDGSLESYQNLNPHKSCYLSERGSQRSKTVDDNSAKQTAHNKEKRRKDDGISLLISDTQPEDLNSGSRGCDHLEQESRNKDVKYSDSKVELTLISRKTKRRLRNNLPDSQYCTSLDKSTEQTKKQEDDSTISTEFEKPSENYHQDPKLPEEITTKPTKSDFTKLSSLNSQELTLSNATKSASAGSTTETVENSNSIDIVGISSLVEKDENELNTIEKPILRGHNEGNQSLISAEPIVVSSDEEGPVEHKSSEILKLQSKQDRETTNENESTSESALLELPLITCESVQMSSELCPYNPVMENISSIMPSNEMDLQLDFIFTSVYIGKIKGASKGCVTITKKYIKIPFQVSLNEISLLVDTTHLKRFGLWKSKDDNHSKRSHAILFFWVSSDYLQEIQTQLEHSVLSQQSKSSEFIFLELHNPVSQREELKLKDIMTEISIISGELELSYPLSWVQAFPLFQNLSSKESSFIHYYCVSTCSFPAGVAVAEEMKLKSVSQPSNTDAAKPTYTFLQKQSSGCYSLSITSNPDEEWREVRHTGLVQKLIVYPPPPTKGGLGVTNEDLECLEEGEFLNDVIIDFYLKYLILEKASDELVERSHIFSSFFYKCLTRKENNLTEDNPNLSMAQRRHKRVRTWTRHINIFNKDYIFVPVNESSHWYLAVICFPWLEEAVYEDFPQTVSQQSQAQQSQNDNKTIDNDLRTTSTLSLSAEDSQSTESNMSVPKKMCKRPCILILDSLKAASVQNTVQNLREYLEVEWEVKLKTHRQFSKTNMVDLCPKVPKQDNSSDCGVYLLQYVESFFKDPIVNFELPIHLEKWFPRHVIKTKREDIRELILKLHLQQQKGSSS
It is filed as functional.

Each structure is given as a SMILES string. Active and inactive are the calls of the source. For most assays here, no stated cut-off is given here; in the data, actives have a measured IC50 and inactives only a lower limit.

What is called IC50 is the concentration needed to halve the response being measured. In general, EC50 refers to the midpoint of the concentration-response curve. A word on the AC50: it is the concentration giving half of the maximal activity seen.

Sequence of Voltage-gated N-type calcium channel alpha-1B subunit/Amyloid beta A4 precursor protein-binding family A member 1 (Q00975 whole entry): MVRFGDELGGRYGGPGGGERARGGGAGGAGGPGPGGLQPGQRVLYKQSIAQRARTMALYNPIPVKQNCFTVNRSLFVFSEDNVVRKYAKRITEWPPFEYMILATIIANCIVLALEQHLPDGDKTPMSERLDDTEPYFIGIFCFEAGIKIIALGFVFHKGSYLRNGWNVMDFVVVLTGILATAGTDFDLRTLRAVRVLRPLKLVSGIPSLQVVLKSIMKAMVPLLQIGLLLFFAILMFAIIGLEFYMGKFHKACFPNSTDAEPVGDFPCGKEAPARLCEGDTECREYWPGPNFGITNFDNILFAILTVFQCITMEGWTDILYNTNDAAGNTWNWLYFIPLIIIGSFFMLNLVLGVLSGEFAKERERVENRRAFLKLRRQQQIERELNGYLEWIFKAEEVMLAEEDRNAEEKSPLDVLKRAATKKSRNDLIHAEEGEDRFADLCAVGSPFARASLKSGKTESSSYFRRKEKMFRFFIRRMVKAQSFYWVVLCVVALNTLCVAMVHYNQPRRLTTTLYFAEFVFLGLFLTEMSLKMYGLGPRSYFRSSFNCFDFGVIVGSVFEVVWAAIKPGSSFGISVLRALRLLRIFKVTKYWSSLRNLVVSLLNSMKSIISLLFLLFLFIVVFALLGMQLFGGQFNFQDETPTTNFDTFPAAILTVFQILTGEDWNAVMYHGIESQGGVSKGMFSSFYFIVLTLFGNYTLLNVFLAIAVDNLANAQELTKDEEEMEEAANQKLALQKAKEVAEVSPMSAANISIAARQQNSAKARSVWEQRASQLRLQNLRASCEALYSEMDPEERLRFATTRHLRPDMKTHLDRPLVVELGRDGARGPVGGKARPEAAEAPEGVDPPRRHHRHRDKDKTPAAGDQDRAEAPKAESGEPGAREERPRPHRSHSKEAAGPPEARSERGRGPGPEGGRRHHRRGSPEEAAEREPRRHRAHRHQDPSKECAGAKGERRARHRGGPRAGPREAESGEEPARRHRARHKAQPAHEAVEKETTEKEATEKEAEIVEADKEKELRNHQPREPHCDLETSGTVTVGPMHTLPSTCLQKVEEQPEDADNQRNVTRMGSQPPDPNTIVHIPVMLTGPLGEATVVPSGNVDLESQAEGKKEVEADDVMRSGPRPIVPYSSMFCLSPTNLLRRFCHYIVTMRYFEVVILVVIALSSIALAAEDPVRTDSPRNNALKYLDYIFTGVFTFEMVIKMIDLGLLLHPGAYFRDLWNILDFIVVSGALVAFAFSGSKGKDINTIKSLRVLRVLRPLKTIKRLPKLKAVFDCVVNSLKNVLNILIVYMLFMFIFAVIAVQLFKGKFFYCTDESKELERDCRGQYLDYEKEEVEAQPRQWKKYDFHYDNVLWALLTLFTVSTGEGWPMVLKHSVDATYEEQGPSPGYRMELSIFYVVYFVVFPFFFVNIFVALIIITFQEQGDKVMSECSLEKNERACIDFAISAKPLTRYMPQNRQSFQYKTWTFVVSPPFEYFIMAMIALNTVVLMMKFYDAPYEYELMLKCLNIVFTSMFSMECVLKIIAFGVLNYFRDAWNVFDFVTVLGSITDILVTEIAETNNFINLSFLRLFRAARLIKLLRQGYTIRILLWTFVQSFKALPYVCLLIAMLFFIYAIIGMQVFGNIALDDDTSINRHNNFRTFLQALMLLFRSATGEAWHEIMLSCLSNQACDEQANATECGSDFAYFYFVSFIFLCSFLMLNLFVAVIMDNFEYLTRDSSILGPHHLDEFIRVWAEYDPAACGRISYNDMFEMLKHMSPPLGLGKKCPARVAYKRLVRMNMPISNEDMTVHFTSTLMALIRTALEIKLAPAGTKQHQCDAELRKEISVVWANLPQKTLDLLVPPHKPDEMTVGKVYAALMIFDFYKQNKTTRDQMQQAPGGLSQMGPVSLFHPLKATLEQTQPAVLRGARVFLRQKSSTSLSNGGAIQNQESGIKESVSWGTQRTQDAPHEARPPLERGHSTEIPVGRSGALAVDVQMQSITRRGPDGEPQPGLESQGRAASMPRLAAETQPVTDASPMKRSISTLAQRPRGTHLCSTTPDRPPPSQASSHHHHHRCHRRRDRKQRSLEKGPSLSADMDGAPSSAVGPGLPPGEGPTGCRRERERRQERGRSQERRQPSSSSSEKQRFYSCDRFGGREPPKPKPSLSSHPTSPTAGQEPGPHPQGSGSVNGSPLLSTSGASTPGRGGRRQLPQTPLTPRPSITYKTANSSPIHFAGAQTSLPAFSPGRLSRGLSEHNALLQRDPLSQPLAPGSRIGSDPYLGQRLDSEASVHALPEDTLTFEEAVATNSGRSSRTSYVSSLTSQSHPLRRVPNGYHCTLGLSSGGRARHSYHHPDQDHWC
Sequence of Voltage-gated N-type calcium channel alpha-1B subunit/Amyloid beta A4 precursor protein-binding family A member 1 (Q02410 whole entry): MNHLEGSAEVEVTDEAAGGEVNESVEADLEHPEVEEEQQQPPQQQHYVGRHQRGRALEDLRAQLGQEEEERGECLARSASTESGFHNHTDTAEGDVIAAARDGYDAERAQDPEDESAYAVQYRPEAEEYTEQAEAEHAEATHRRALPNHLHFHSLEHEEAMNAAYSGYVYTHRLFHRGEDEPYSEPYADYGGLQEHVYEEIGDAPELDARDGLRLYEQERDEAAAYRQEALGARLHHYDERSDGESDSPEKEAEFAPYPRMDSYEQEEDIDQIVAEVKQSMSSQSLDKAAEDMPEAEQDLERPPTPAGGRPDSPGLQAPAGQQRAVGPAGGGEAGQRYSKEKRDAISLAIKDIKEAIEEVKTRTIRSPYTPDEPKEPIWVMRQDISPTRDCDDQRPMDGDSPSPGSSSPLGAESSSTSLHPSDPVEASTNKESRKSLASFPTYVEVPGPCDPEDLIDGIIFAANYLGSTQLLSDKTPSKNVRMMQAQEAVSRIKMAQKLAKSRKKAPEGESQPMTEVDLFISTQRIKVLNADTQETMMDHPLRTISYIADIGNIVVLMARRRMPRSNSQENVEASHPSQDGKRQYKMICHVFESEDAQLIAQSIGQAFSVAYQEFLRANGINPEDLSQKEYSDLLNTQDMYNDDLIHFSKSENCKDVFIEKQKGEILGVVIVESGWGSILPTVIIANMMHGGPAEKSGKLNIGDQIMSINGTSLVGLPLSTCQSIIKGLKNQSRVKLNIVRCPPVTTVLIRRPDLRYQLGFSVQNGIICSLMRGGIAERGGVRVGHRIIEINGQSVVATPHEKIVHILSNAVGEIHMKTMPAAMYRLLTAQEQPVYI

As for `COc1ccc(/C=C2\SC(=S)N(CCC(=O)Nc3ccc(C(=O)O)cc3)C2=O)cc1OC`, the IC50 in experiment [1] was 3.74 µM (active); in experiment [2], > 50 µM (inactive).

As for `COc1ccc(Nc2ccc3c(c2)=NC2(CCCCC2)[N+]=3[O-])cc1`, in the experiment on H4, the EC50 is 79.5 µM (active). Also, in experiment [3], the AC50 was 9.3 µM (active). The IC50 in experiment [4] is 9.21 µM (active).
